According to patent publication US20130310374A1, “Substituted Imidazoquinoline Derivatives” (PIRAMAL ENTERPRISES LIMITED`, priority 2010, published 2013):

Legend:
[1] = test system: PC3; assay: Cytotoxicity propidium iodide assay, PC3; format: cell-based, human; details: Homo sapiens, PC-3; PC3 (prostate), 48 hours treatment; read-out: IC50 Values in μM, C2a
Method in brief: (§1)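 Cells seeded at 3000 cells/well, grown 18-24 h at 37° C./5% CO2, then exposed to graded compound concentrations for 48 h. After PBS wash, […] propidium iodide was added, plates frozen overnight, thawed and read by fluorescence. IC50 derived from viability relative to untreated wells (100%).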

[2] = test system: MCF7; assay: Cytotoxicity propidium iodide assay, MCF7; format: cell-based; details: Homo sapiens; MCF7 (breast), 48 hours treatment; read-out: IC50 Values in μM, C3d
Method in brief: as §1

[3] = test system: LN229; assay: Cytotoxicity propidium iodide assay, LN229; format: cell-based; details: Homo sapiens, LN-229; LN229 (glioblastoma), 48 hours treatment; read-out: IC50 Values in μM, C5a
Experimental: (§2) The assay was designed as in the reference, Anticancer Drugs, 2002, 13, 1-8, the disclosure of which is incorporated herein by reference for the teaching of the assay.
(§3) Cells from cell lines (ATCC) as mentioned in the table given below were seeded at a density of 3000 cells/well in a white opaque 96-well plate. Following incubation at 37° C./5% CO2 for a period of 18-24 hours, the cells were treated with various concentrations (stock solution was prepared in DMSO and subsequent dilutions were made in media as per ATCC guidelines) of the compounds of the present invention for a period of 48 hours. At the end of treatment, the culture medium was discarded, the cells were washed with 1×PBS and 200 μL of […] propidium iodide was added to each well. The plates were frozen at […] overnight. For analysis, the plates were warmed to RT, allowed to thaw and were read in PoleStar fluorimeter with the fluorescence setting. The percentage of viable cells in the non-treated set of wells was considered to be 100 and the percentage viability following treatment was calculated accordingly. IC50 values were calculated from graphs plotted using these percentages. IC50 values for certain compounds of present invention are depicted in Table 1 and % Inhibition of certain compounds of present invention are depicted in Table 2.

[4] = test system: PANC 1; assay: Cytotoxicity propidium iodide assay, PANC 1; format: cell-based; details: Homo sapiens; PANC 1 (pancreatic), 48 hours treatment; read-out: IC50 Values in μM, C4a
Method in brief: as §1

[5] = test system: hPBMC; assay: MTS toxicity assay in parallel to Con-A-induced IFN-γ assay; format: cell-based, human; details: Con-A experiment
Experimental: (§4) Peripheral blood was collected from normal healthy volunteers after informed consent. Peripheral blood mononuclear cells (hPBMC) were harvested using Ficoll-Hypaque density gradient centrifugation (1.077 g/mL; Sigma Aldrich). hPBMCs were resuspended in RPMI 1640 culture medium (Gibco BRL, Pasley, UK) containing 10% FCS, 100 U/mL penicillin (Sigma Chemical Co. St Louis, Mo.) and […] streptomycin (Sigma Chemical Co. St Louis, Mo.) at 1×10^6 cells/mL. 1×10^5 hPBMCs/well were pre-treated with 0.025 μM of compounds of present invention or 0.5% DMSO (vehicle control) for 30 minutes at 37° C. Subsequently, these cells were stimulated with 1 μg/mL concanavalin A (Sigma Chemical Co., St. Louis, Mo.). Following 18 hours of incubation at 37° C., supernatants were collected and stored at −70° C. until assayed for human IFN-γ by ELISA as described by the manufacturer (OptiEIA ELISA sets, BD BioSciences). In every experiment, cyclosporin (1 μM) was used as a positive control for inhibiting induced IFN-γ production. In all experiments, the toxicity of test compounds was ascertained, in parallel, using the MTS (3-(4,5-dimethylthiazol-2-yl)-5-(3-carboxymethoxyphenyl)-2-(4-sulfonyl)-2H-tetrazolium) assay as described in Am. J. Physiol. Cell Physiol., 2003, 285, C813-C822.

[6] = test system: BxPC3; assay: Cytotoxicity propidium iodide assay, BxPC3; format: cell-based; details: Homo sapiens, BXPC-3; BxPC3 (pancreatic), 48 hours treatment; read-out: IC50 Values in μM, C4c
Method in brief: as §1

[7] = test system: PI3K/mTOR pathway; assay: Western blot analysis in A2780 ovarian cancer cell line; format: cell-based; details: A2780 cells treated for 1 hour; FIG. 1A-1E
Experimental: Protocol for Western Blot Analysis
A2780 ovarian cancer cell line (ATCC) were grown to approximately 70% confluence in 100-mm tissue culture dishes and then treated for 1 hour with […] compounds of Example 2, 3, 5, 16, 19, 55 and 59. Total protein was extracted using cell lysis buffer (NaCl […], NP40 0.67%, Tris-Cl, pH 7.5, 67 mM) containing protease inhibitors and phosphatase inhibitors (Beta-glycerol phosphate 40 mM, DTT 1 mM, NaF 0.4 mM, Sodium-Orthovanadate 0.4 mM) at 4° C. for 1 hour. Cell lysates were then centrifuged at 2×10^4 g for 10 minutes at 4° C., and the protein concentration of the supernatant was quantified using the Bradford's method (BioRad, USA). For SDS-PAGE, 50 μg protein was loaded in SDS-PAGE, transferred to a polyvinylidene difluoride membrane (Bio-Rad, USA) and blocked with 5 mL buffer [5% skim milk and 0.1% Tween] for 1 hour 30 minutes. Membrane were probed with primary antibody (all primary antibodies were from cell signaling with 1:1000 in TBST solution) of respective protein at 4° C. overnight. Peroxidase-labeled anti-rabbit or anti-mouse antibodies (Santacruze, USA) were used as the secondary antibody. Actin and respective whole protein levels were used as the control for protein loading. Protein antigens were detected using Chemiluminescent Substrate (Thermo scientific, USA) and exposed on Kodak station.

[8] = test system: A2780; assay: Cytotoxicity propidium iodide assay, A2780; format: cell-based; details: Homo sapiens; A2780 (ovarian), 48 hours treatment; read-out: IC50 Values in μM, C1a
Method in brief: as §1

[9] = test system: IFN-γ; assay: Con-A-induced IFN-γ production from hPBMC; format: cell-based; details: Homo sapiens, concanavalin A 1 μg/mL, 18 hours
Experimental: Con-A-Induced IFN-γ Production from hPBMC
as §4

[10] = test system: KU812/SR; assay: Cytotoxicity propidium iodide assay, KU812/SR; format: cell-based; details: Homo sapiens; KU812/SR (CML), 48 hours treatment; read-out: IC50 Values in μM, C6c
Method in brief: as §1

[11] = test system: T315I; assay: Cytotoxicity propidium iodide assay, T315I; format: cell-based; details: T315I (CML), 48 hours treatment; read-out: IC50 Values in μM, C6b
Experimental: as §2, §3

SMILES	IC50 [1] [µM]	IC50 [2] [µM]	IC50 [3] [µM]	IC50 [4] [µM]	% Toxicity at 0.025 μM [5] [%]	IC50 [6] [µM]	Akt, S6 and 4EBP1 phosphorylation (Western blot) [7]	IC50 [8] [µM]	inhibition at 0.025 µM [9] [%]	IC50 [10] [µM]	IC50 [11] [µM]
Cn1c(=O)n(-c2ccc(C(C)(C)C#N)nc2)c2c3cc(-c4cnc5ccccc5c4)ccc3ncc21 [Example 2, 2-Methyl-2-(5-(3-methyl-2-oxo-8-(quinolin-3-yl)-2,3-dihydro-1H-imidazo[4,5-c]quinolin-1-yl)pyridin-2-yl)propanenitrile]	0.068	0.09	0.55	0.1	12	0.04	inhibit Akt, S6 and 4EBP1 phosphorylation	0.024	58		
Cn1c(=O)n(-c2ccc(C(C)(C)C#N)nc2)c2c3cc(-c4cnc(N)c(C(F)(F)F)c4)ccc3ncc21 [Example 3, 2-(5-(8-(6-Amino-5-(trifluoromethyl)pyridin-3-yl)-3-methyl-2-oxo-2,3-dihydro-1H-imidazo[4,5-c]quinolin-1-yl)pyridin-2-yl)-2-methylpropanenitrile]	0.005	0.026	0.056	0.01	21	0.01	inhibit Akt, S6 and 4EBP1 phosphorylation	< 0.005	98	0.19	0.32
COc1ccc(-n2c(=O)n(C)c3cnc4ccc(-c5cnc(N)c(C(F)(F)F)c5)cc4c32)cn1 [Example 19, 8-(6-Amino-5-(trifluoromethyl)pyridin-3-yl)-1-(6-methoxypyridin-3-yl)-3-methyl-1H-imidazo[4,5-c]quinolin-2(3H)-one]	0.006	0.054	0.096	0.026	18	0.016	inhibit Akt, S6 and 4EBP1 phosphorylation	< 0.01	93	0.06	0.049
CS(=O)(=O)O.Cn1c(=O)n(-c2ccc(C(C)(C)C#N)nc2)c2c3cc(-c4cnc(N)c(C(F)(F)F)c4)ccc3ncc21 [Example 3a, 8-(6-Amino-5-(trifluoromethyl)pyridin-3-yl)-1-(6-(2-cyanopropan-2-yl)pyridin-3-yl)-3-methyl-2-oxo-2,3-dihydro-1H-imidazo[4,5-c]quinolin-5-ium methanesulfonate]							inhibit Akt, S6 and 4EBP1 phosphorylation				
CC(C)(C#N)c1ccc(-n2c(=O)n(CC#N)c3cnc4ccc(-c5cnc(N)c(C(F)(F)F)c5)cc4c32)cn1 [Example 16, 2-(5-(8-(6-Amino-5-(trifluoromethyl)pyridin-3-yl)-3-(cyanomethyl)-2-oxo-2,3-dihydro-1H-imidazo[4,5-c]quinolin-1-yl)pyridin-2-yl)-2-methylpropanenitrile]	0.025	0.03	0.65	0.017	3	0.008	inhibit Akt, S6 and 4EBP1 phosphorylation	0.013	31	0.19	2.13
